Two molecules from BindingDB's records for patent US20250215013 (Impact Therapeutics (Shanghai), 2025) can be followed below.

One test concerns the target PARP2 (Homo sapiens, UniProt Q9UGN5). As to the kind of experiment: PARP1 and PARP2 Chemiluminescent Assay.
In test [1] the target is Poly [ADP-ribose] polymerase 1 (Homo sapiens, UniProt P09874). As to the kind of experiment: PARP1 and PARP2 Chemiluminescent Assay.
Sequence of Poly [ADP-ribose] polymerase 1 (P09874 whole entry): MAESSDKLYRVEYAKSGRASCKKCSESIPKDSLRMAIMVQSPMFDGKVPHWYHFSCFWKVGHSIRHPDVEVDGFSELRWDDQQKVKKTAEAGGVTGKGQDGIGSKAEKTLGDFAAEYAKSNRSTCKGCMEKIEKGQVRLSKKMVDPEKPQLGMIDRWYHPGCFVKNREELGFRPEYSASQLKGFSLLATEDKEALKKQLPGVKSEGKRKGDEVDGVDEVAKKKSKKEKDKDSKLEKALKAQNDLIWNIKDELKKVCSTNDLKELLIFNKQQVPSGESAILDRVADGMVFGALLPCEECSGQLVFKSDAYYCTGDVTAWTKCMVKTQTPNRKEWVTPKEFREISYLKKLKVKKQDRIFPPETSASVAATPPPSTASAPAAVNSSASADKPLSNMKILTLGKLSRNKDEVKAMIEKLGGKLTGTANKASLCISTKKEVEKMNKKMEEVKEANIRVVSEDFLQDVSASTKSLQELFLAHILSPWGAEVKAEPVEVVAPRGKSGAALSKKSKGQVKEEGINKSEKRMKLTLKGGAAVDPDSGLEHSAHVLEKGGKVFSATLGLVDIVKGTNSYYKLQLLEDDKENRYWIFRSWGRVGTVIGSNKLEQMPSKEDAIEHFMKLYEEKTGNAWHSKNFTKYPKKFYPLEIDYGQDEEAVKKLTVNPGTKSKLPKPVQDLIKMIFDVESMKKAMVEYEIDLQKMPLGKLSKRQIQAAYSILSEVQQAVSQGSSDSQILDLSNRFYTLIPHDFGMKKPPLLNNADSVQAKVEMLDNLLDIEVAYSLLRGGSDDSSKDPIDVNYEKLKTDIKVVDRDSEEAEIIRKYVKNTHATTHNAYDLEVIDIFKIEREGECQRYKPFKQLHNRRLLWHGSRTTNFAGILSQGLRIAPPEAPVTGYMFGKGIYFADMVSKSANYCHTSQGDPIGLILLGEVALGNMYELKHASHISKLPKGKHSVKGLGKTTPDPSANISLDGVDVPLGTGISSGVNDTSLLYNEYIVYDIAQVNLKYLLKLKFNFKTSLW
Description: The solutions were added to a 96-well plate coated with histone mixture, incubated at room temperature for 1 h, then 50 μL 0.3 ng/mL Streptavidin-HRP was added to each well. The plates were incubated for 30 minutes at room temperature. Finally, the plates were treated with streptavidin-HRP followed by addition of the ELISA ECL substrate to produce chemiluminescence that can be measured using a chemiluminescence reader. Inhibition of the tested compound to PARP1/2 enzyme activity was calculated according to the following formula.Inhibition ⁢ ( % ) = Readings ⁢ of ⁢ positive ⁢ control - X Readings ⁢ of ⁢ positive ⁢ control - Readings ⁢ of ⁢ negative ⁢ controlIC50 value is obtained by fitting the s-shaped dose response curve equation by using XL Fit software. The curve equation is Y=100/(1+10^(logC−logIC50)), C is the compound concentration.

Sequence of PARP2 (Q9UGN5 whole entry): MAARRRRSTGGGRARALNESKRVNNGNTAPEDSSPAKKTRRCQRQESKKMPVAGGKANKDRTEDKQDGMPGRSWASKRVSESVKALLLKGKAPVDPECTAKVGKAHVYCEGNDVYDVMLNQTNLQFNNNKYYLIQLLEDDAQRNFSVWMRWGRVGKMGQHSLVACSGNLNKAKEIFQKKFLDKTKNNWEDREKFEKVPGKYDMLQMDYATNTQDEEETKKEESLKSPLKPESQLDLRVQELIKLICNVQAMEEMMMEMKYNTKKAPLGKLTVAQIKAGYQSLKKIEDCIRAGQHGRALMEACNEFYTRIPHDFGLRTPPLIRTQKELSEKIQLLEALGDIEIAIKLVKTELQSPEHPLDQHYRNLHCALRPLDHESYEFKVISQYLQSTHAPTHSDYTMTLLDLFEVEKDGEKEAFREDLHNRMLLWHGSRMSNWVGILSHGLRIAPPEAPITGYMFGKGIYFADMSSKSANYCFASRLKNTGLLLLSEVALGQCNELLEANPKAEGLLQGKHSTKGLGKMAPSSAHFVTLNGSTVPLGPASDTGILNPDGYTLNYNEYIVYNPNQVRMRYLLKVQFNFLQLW

Usually IC50 stands for the midpoint of a concentration-inhibition curve. Higher therefore signals weaker potency. In the case of `CNC(=O)c1ccc(N2CCN(Cc3ccc4c([nH]c(=O)c5c(F)cnn54)c3F)CC2)c(F)n1` [US20250215013, Example 188], the figures for the half-inhibitory concentration (IC50) (on PARP2; in test [1]) were 1540 nM and 0.4 nM, respectively.

Turning to `CNC(=O)c1ccc(N2CCN(Cc3ccc4c([nH]c(=O)n5ccnc45)c3F)CC2)c(C)n1` [US20250215013, Example 50], the IC50 on PARP2 is over 10000 nM; in test [1], 2.13 nM.
